According to publication PMC11945475, “Nasal Administration of a Nanoemulsion Based on Methyl Ferulate and Eugenol Encapsulated in Chitosan Oleate: Uptake Studies in the Central Nervous System” (Pharmaceutics, 2025):

Legend:
[1] = Intravenous administration of Fer-Me to rats (bloodstream and CSF pharmacokinetics); format: in vivo, rat
Procedure: Charles River laboratories, Calco, Italy) bloodstream and CSF. […] The sample size (4 rats/group) has been chosen based on our previous studies. The experimental procedures were approved by the Italian Ministry of Health and were performed in accordance with the European Communities Council Directive of September 2010 (2010/63/EU). According to the ARRIVE guidelines, all possible efforts were made to minimize animal pain and discomfort and to reduce the number of experimental subjects. Fer-Me solution (2.5 mg/mL final concentration, 15% v/v EtOH content) was prepared by first dissolving Fer-Me in EtOH and then adding this latter solution to a saline solution (0.9% NaCl). […] The aqueous phase was then subjected to a double extraction with 1 mL of H2O-saturated ethyl acetate. […] Data were acquired and processed through CLASS-VP Software; version 7.2.1 (Shimadzu Italia, Milan, Italy). The mobile phase was eluted under isocratic conditions (0.8 mL/min) and was constituted by a mixture of acetic acid in H2O (0.4% v/v) and MeOH, whose ratio was 40:60 (v/v). The UV-Vis detector was set at 320 nm for the detection of Fer-Me, its hydrolysis product Fer, and Caf-Me, which was utilized as an internal standard during blood sample extraction. […] The average recoveries were approximately 40% for Fer and 58% for Fer-Me. For this reason, the concentrations of these compounds were determined by their peak area ratio with respect to the internal standard (Caf-Me). […] Fer-Me in vivo half-life (t1/2) in the rats' bloodstream was determined using nonlinear regression (exponential decay) of concentration values quantified at appropriate time intervals after infusion, further validated by applying linear regression to the semi-logarithmic plot.

[2] = set-up: method as in PMID 33547615; conditions: rats, Fer at doses up to 40 mg/kg; cited from earlier work
[3] = rat, Fer 1 mg/kg i.v.; cited from earlier work
[4] = rat, after Fer-Me 10 mg/kg i.v. infusion

With `COc1cc(/C=C/C(=O)O)ccc1O` [Fer, ferulic acid] the “Fer AUC as percentage of the Fer-Me AUC value” ([1]; rat bloodstream, after Fer-Me 10 mg/kg i.v.) was 1.3%, the “Fer concentration in the bloodstream” value ([1]; rat, about 20 min after end of Fer-Me 10 mg/kg i.v. infusion) was 0.205 ± 0.050 µg/mL and the “AUC of hydrolysis product Fer in the bloodstream” value [1, 4] was 8.4 ± 0.8 µg·min/mL. For the same compound, the “C0 of hydrolysis product Fer in the bloodstream” value [1, 4] was 209 ± 1 ng/mL, the “time within which Fer blood concentration decreased to zero” value ([1]; rat, from the end of Fer-Me 10 mg/kg i.v. infusion) was at most 60 min and the side effects [2] was “no side effects”. The “AUC in CSF” value [3] was 3.3 ± 0.3 µg·min/mL, the “AUC in the bloodstream” value [3] was 244 ± 13 µg·min/mL and the “Cmax in CSF” value [3] was 80 ± 10 ng/mL. The “Tmax in CSF” value [3] was 1 h.
